# Test results taken from patent publication US6525001B1, “Substituted pyrimidine and pyridine herbicides” (Mid-American Commercialization Corporation, priority 1997, dated 2003).
# Assays:
# Type in all cases: in vivo
# Design in all cases: key: 0 is no effect; 10 is complete control
# soybean (Glycine max) = assay: Test B pre-/postemergence
# Text: (§1) Seeds of bedstraw (Galium aparine), blackgrass (Alopecurus myosuroides), broadleaf signalgrass (Brachiaria decumbens), cocklebur (Xanthium strumarium), corn (Zea mays), crabgrass (Digitaria sanguinalis), giant foxtail (Setaria faberii), lambsquarters (Chenopodium album), momingglory (Ipomoea hederacea), pigweed (Amaranthus retroflexus), rape (Brassica napus), soybean (Glycine max), sugar beet (Beta vulgaris), velvetleaf (Abutilon theophrasti), wheat (Triticum aestivum), wild oat (Avena fatua) and purple nutsedge (Cyperus rotundus) tubers were planted and treated preemergence with test chemicals formulated in a non-phytotoxic solvent mixture which included a surfactant.
# (§2) At the same time, these crop and weed species were also treated with postemergence applications of test chemicals formulated in the same manner. Plants ranged in height from 2 to 18 cm (1- to 4-leaf stage) for postemergence treatments. Plant species in the flood test consisted of rice (Oryza sativa), smallflower flatsedge (Cyperus difformis), duck salad (Heteranthera limosa) and bamyardgrass (Echinochloa crus-galli) grown to the 2-leaf stage for testing. Treated plants and controls were maintained in a greenhouse for twelve to sixteen days, after which all species were compared to controls and visually evaluated. Plant response ratings, summarized in Table B, are based on a scale of 0 to 10 where 0 is no effect and 10 is complete control. A dash (−) response means no test result.
# [1] = test system: wheat (Triticum aestivum); assay: Test B pre-/postemergence
# Text: as §1, §2
# rape (Brassica napus) = assay: Test B pre-/postemergence
# Text: as §1, §2
# [2] = test system: crabgrass (Digitaria sanguinalis); assay: Test B pre-/postemergence
# Text: as §1, §2
# [3] = test system: pigweed (Amaranthus retroflexus); assay: Test B pre-/postemergence
# Text: as §1, §2
# [4] = test system: cocklebur (Xanthium strumarium); assay: Test B pre-/postemergence
# Text: as §1, §2
# [5] = test system: blackgrass (Alopecurus myosuroides); assay: Test B pre-/postemergence
# Text: as §1, §2
# [6] = test system: momingglory (Ipomoea hederacea); assay: Test B pre-/postemergence
# Text: as §1, §2
# [7] = test system: sugar beet (Beta vulgaris); assay: Test B pre-/postemergence
# Text: as §1, §2
# [8] = test system: purple nutsedge (Cyperus rotundus); assay: Test B pre-/postemergence
# Text: as §1, §2
# wild oat (Avena fatua) = assay: Test B pre-/postemergence
# Text: as §1, §2
# [9] = test system: bedstraw (Galium aparine); assay: Test B pre-/postemergence
# Text: as §1, §2
# [10] = test system: broadleaf signalgrass (Brachiaria decumbens); assay: Test B pre-/postemergence
# Text: as §1, §2
# corn (Zea mays) = assay: Test B pre-/postemergence
# Text: as §1, §2
# [11] = test system: giant foxtail (Setaria faberii); assay: Test B pre-/postemergence
# Text: as §1, §2
# [12] = test system: velvetleaf (Abutilon theophrasti); assay: Test B pre-/postemergence
# Text: as §1, §2
# [13] = test system: smallflower flatsedge (Cyperus difformis); assay: Test B flood test
# In short: (§3)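 Plants were grown to the 2-leaf stage before treatment with test chemical, then held in a greenhouse for twelve to sixteen days. Injury was visually rated against untreated controls on a 0–10 scale, where 0 is no effect and 10 is complete control.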
# [14] = test system: bamyardgrass (Echinochloa crus-galli); assay: Test B flood test
# In short: as §3
# [15] = test system: duck salad (Heteranthera limosa); assay: Test B flood test
# In short: as §3
# rice (Oryza sativa) = assay: Test B flood test
# In short: as §3
# [16] = Rate 62 g/ha, Postemergence (flood test)
# [17] = Rate 125 g/ha, Postemergence, flood test
# [18] = Rate 250 g/ha, Postemergence (flood test species)
compound,measurement,setting,value
Cc1cnc(-c2cccc(C(F)(F)F)c2)nc1Cc1cccc(C(F)(F)F)c1 [Compound 24],"Plant response rating, Soybean","soybean (Glycine max); Rate 62 g/ha, Postemergence",3
same,Soybean plant response rating,"soybean (Glycine max); Rate 62 g/ha, Preemergence",0
same,"Plant response rating, Soybean","soybean (Glycine max); Rate 125 g/ha, Postemergence",6
same,Soybean plant response rating,"soybean (Glycine max); Rate 125 g/ha, Preemergence",0
same,"Plant response rating, Soybean","soybean (Glycine max); Rate 250 g/ha, Postemergence",6
same,"Plant response rating, Soybean","soybean (Glycine max); Rate 250 g/ha, Preemergence",0
same,"Plant response rating, Wheat","[1]; Rate 62 g/ha, Postemergence",2
same,Wheat plant response rating,"[1]; Rate 62 g/ha, Preemergence",0
same,"Plant response rating, Wheat","[1]; Rate 125 g/ha, Postemergence",2
same,Wheat plant response rating,"[1]; Rate 125 g/ha, Preemergence",0
same,"Plant response rating, Wheat","[1]; Rate 250 g/ha, Postemergence",3
same,"Plant response rating, Wheat","[1]; Rate 250 g/ha, Preemergence",0
same,"Plant response rating, Rape","rape (Brassica napus); Rate 62 g/ha, Postemergence",8
same,Rape plant response rating,"rape (Brassica napus); Rate 62 g/ha, Preemergence",0
same,"Plant response rating, Rape","rape (Brassica napus); Rate 125 g/ha, Postemergence",10
same,Rape plant response rating,"rape (Brassica napus); Rate 125 g/ha, Preemergence",2
same,"Plant response rating, Rape","rape (Brassica napus); Rate 250 g/ha, Postemergence",10
same,"Plant response rating, Rape","rape (Brassica napus); Rate 250 g/ha, Preemergence",4
same,"Plant response rating, Crabgrass","[2]; Rate 62 g/ha, Postemergence",8
same,Crabgrass plant response rating,"[2]; Rate 62 g/ha, Preemergence",1
same,"Plant response rating, Crabgrass","[2]; Rate 125 g/ha, Postemergence",8
same,Crabgrass plant response rating,"[2]; Rate 125 g/ha, Preemergence",3
same,"Plant response rating, Crabgrass","[2]; Rate 250 g/ha, Postemergence",8
same,"Plant response rating, Crabgrass","[2]; Rate 250 g/ha, Preemergence",1
same,"Plant response rating, Redroot pigweed","[3]; Rate 62 g/ha, Postemergence",9
same,Redroot pigweed plant response rating,"[3]; Rate 62 g/ha, Preemergence",0
same,"Plant response rating, Redroot pigweed","[3]; Rate 125 g/ha, Postemergence",10
same,Redroot pigweed plant response rating,"[3]; Rate 125 g/ha, Preemergence",8
same,"Plant response rating, Redroot pigweed","[3]; Rate 250 g/ha, Postemergence",10
same,"Plant response rating, Redroot pigweed","[3]; Rate 250 g/ha, Preemergence",10
same,"Plant response rating, Cocklebur","[4]; Rate 62 g/ha, Postemergence",9
same,Cocklebur plant response rating,"[4]; Rate 62 g/ha, Preemergence",0
same,"Plant response rating, Cocklebur","[4]; Rate 125 g/ha, Postemergence",9
same,Cocklebur plant response rating,"[4]; Rate 125 g/ha, Preemergence",0
same,"Plant response rating, Cocklebur","[4]; Rate 250 g/ha, Postemergence",10
same,"Plant response rating, Cocklebur","[4]; Rate 250 g/ha, Preemergence",0
same,"Plant response rating, Blackgrass","[5]; Rate 62 g/ha, Postemergence",2
same,Blackgrass plant response rating,"[5]; Rate 62 g/ha, Preemergence",0
same,"Plant response rating, Blackgrass","[5]; Rate 125 g/ha, Postemergence",3
same,Blackgrass plant response rating,"[5]; Rate 125 g/ha, Preemergence",2
same,"Plant response rating, Blackgrass","[5]; Rate 250 g/ha, Postemergence",4
same,"Plant response rating, Blackgrass","[5]; Rate 250 g/ha, Preemergence",3
same,"Plant response rating, Morningglory","[6]; Rate 62 g/ha, Postemergence",8
same,Morningglory plant response rating,"[6]; Rate 62 g/ha, Preemergence",2
same,"Plant response rating, Morningglory","[6]; Rate 125 g/ha, Postemergence",10
same,Morningglory plant response rating,"[6]; Rate 125 g/ha, Preemergence",4
same,"Plant response rating, Morningglory","[6]; Rate 250 g/ha, Postemergence",10
same,"Plant response rating, Morningglory","[6]; Rate 250 g/ha, Preemergence",4
same,"Plant response rating, Sugarbeets","[7]; Rate 62 g/ha, Postemergence",10
same,Sugarbeets plant response rating,"[7]; Rate 62 g/ha, Preemergence",2
same,"Plant response rating, Sugarbeets","[7]; Rate 125 g/ha, Postemergence",10
same,Sugarbeets plant response rating,"[7]; Rate 125 g/ha, Preemergence",3
same,"Plant response rating, Sugarbeets","[7]; Rate 250 g/ha, Postemergence",10
same,"Plant response rating, Sugarbeets","[7]; Rate 250 g/ha, Preemergence",9
same,"Plant response rating, Nutsedge","[8]; Rate 62 g/ha, Postemergence",0
same,Nutsedge plant response rating,"[8]; Rate 62 g/ha, Preemergence",0
same,"Plant response rating, Nutsedge","[8]; Rate 125 g/ha, Postemergence",1
same,Nutsedge plant response rating,"[8]; Rate 125 g/ha, Preemergence",0
same,"Plant response rating, Nutsedge","[8]; Rate 250 g/ha, Preemergence",0
same,"Plant response rating, Wild oats","wild oat (Avena fatua); Rate 62 g/ha, Postemergence",2
same,Wild oats plant response rating,"wild oat (Avena fatua); Rate 62 g/ha, Preemergence",0
same,"Plant response rating, Wild oats","wild oat (Avena fatua); Rate 125 g/ha, Postemergence",3
same,Wild oats plant response rating,"wild oat (Avena fatua); Rate 125 g/ha, Preemergence",1
same,"Plant response rating, Wild oats","wild oat (Avena fatua); Rate 250 g/ha, Postemergence",4
same,"Plant response rating, Wild oats","wild oat (Avena fatua); Rate 250 g/ha, Preemergence",4
same,"Plant response rating, Bedstraw","[9]; Rate 62 g/ha, Postemergence",4
same,Bedstraw plant response rating,"[9]; Rate 62 g/ha, Preemergence",0
same,"Plant response rating, Bedstraw","[9]; Rate 125 g/ha, Postemergence",10
same,Bedstraw plant response rating,"[9]; Rate 125 g/ha, Preemergence",1
same,"Plant response rating, Bedstraw","[9]; Rate 250 g/ha, Postemergence",10
same,"Plant response rating, Bedstraw","[9]; Rate 250 g/ha, Preemergence",1
same,"Plant response rating, B. signalgrass","[10]; Rate 62 g/ha, Postemergence",2
same,B. signalgrass plant response rating,"[10]; Rate 62 g/ha, Preemergence",2
same,"Plant response rating, B. signalgrass","[10]; Rate 125 g/ha, Postemergence",2
same,B. signalgrass plant response rating,"[10]; Rate 125 g/ha, Preemergence",3
same,"Plant response rating, B. signalgrass","[10]; Rate 250 g/ha, Postemergence",3
same,"Plant response rating, B. signalgrass","[10]; Rate 250 g/ha, Preemergence",6
same,"Plant response rating, Corn","corn (Zea mays); Rate 62 g/ha, Postemergence",1
same,Corn plant response rating,"corn (Zea mays); Rate 62 g/ha, Preemergence",0
same,"Plant response rating, Corn","corn (Zea mays); Rate 125 g/ha, Postemergence",1
same,Corn plant response rating,"corn (Zea mays); Rate 125 g/ha, Preemergence",0
same,"Plant response rating, Corn","corn (Zea mays); Rate 250 g/ha, Postemergence",1
same,"Plant response rating, Corn","corn (Zea mays); Rate 250 g/ha, Preemergence",0
same,"Plant response rating, Giant foxtail","[11]; Rate 62 g/ha, Postemergence",2
same,Giant foxtail plant response rating,"[11]; Rate 62 g/ha, Preemergence",0
same,"Plant response rating, Giant foxtail","[11]; Rate 125 g/ha, Postemergence",2
same,Giant foxtail plant response rating,"[11]; Rate 125 g/ha, Preemergence",6
same,"Plant response rating, Giant foxtail","[11]; Rate 250 g/ha, Postemergence",3
same,"Plant response rating, Giant foxtail","[11]; Rate 250 g/ha, Preemergence",6
same,"Plant response rating, Velvetleaf","[12]; Rate 62 g/ha, Postemergence",2
same,Velvetleaf plant response rating,"[12]; Rate 62 g/ha, Preemergence",0
same,"Plant response rating, Velvetleaf","[12]; Rate 125 g/ha, Postemergence",6
same,Velvetleaf plant response rating,"[12]; Rate 125 g/ha, Preemergence",1
same,"Plant response rating, Velvetleaf","[12]; Rate 250 g/ha, Postemergence",7
same,"Plant response rating, Velvetleaf","[12]; Rate 250 g/ha, Preemergence",2
same,"Plant response rating, S. Flatsedge",[13]; [16],0
same,"Plant response rating, S. Flatsedge",[13]; [17],1
same,"Plant response rating, S. Flatsedge",[13]; [18],3
same,"Plant response rating, Barnyardgrass",[14]; [16],2
same,"Plant response rating, Barnyardgrass",[14]; [17],3
same,"Plant response rating, Barnyardgrass",[14]; [18],4
same,"Plant response rating, Ducksalad",[15]; [16],0
same,"Plant response rating, Ducksalad",[15]; [17],2
same,"Plant response rating, Ducksalad",[15]; [18],3
same,"Plant response rating, Rice",rice (Oryza sativa); [16],1
same,"Plant response rating, Rice",rice (Oryza sativa); [17],1
same,"Plant response rating, Rice",rice (Oryza sativa); [18],2
